Ten compounds from ChEMBL document CHEMBL1130828, “Synthesis and biological activities of phenyl piperazine-based peptidomimetic growth hormone secretagogues” (Bioorg Med Chem Lett, 1998) can be followed below.

The species named for this test is Rattus norvegicus. As to the kind of experiment: Concentration required for GH-releasing activity in the rat pituitary cell assay was determined in vitro. Format: functional. The settings on record: Pituitary gland cell.

On to `COC(=O)CS(=O)(=O)Nc1ccccc1N1CCN(C(=O)[C@@H](CCCc2ccccc2)NC(=O)C(C)(C)N)CC1`, for which the response was half-maximal at 4.5 nM (EC50).

`CC(C)(N)C(=O)N[C@H](Cc1c[nH]c2ccccc12)C(=O)N1CCN(c2ccccc2Cl)CC1`: the midpoint of the response, the EC50, lay at 760 nM.

Regarding `COc1ccccc1N1CCN(C(=O)[C@@H](Cc2c[nH]c3ccccc23)NC(=O)C(C)(C)N)CC1`, the EC50 was 490 nM. This EC50 lies about 1.6-fold lower than the previous one.

With `Cc1ccccc1N1CCN(C(=O)[C@@H](Cc2c[nH]c3ccccc23)NC(=O)C(C)(C)N)CC1`, the EC50 is 150 nM.

With `CC(C)c1ccccc1N1CCN(C(=O)[C@@H](Cc2c[nH]c3ccccc23)NC(=O)C(C)(C)N)CC1`, the EC50 was found to be 210 nM.

In the case of `CC(C)(N)C(=O)N[C@H](CCCc1ccccc1)C(=O)N1CCN(c2ccccc2NS(=O)(=O)C(F)(F)F)CC1`, the EC50 stood at 200 nM.

In the case of `CC(C)(N)C(=O)N[C@H](CCCc1ccccc1)C(=O)N1CCN(c2ccccc2NS(=O)(=O)CC(=O)O)CC1`, the EC50 came out at 2.3 nM.

As to `CC(C)(N)C(=O)N[C@H](CCCc1ccccc1)C(=O)N1CCN(c2ccccc2NS(C)(=O)=O)CC1`, the EC50 was found to be 6.3 nM.

`CC(C)S(=O)(=O)Nc1ccccc1N1CCN(C(=O)[C@@H](CCCc2ccccc2)NC(=O)C(C)(C)N)CC1` returned an EC50 of 2.8 nM.

Regarding `Cc1ccccc1N1CCN(C(=O)[C@@H](CCCc2ccccc2)NC(=O)C(C)(C)N)CC1`, the concentration for a half-maximal effect (EC50) is 100 nM.

Usually EC50 stands for the concentration needed to bring the measured effect to its halfway point. High values mean a less potent agent, low ones a more potent agent.
